Test results from PubChem BioAssay (NCI).
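Dose response: 5 concentrations. Exposure: 48 h. Format: 96-well plates. Endpoint: linear interpolation; highest concentration if not reached. Here, GI50 denotes the concentration required for 50% inhibition of growth. TGI denotes the concentration required for complete inhibition of growth.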

Experiments:
Experiment in all cases: inhibition of tumour cell growth, NCI panel, 48 h
PC-3 prostate = test system: PC-3 prostate
T-47D breast = test system: T-47D breast
UO-31 renal = test system: UO-31 renal
MOLT-4 leukemia = test system: MOLT-4 leukemia
HOP-92 NSCLC = test system: HOP-92 NSCLC
HS 578T breast = test system: HS 578T breast
SF-539 CNS = test system: SF-539 CNS
SNB-19 CNS = test system: SNB-19 CNS
LOX IMVI melanoma = test system: LOX IMVI melanoma
OVCAR-5 ovarian = test system: OVCAR-5 ovarian
SK-MEL-5 melanoma = test system: SK-MEL-5 melanoma
SK-MEL-2 melanoma = test system: SK-MEL-2 melanoma
SF-295 CNS = test system: SF-295 CNS
BT-549 breast = test system: BT-549 breast
SN12C renal = test system: SN12C renal
SK-OV-3 ovarian = test system: SK-OV-3 ovarian
NCI-H226 lung = test system: NCI-H226 lung
HT29 colon = test system: HT29 colon
A498 renal = test system: A498 renal
NCI-H522 lung = test system: NCI-H522 lung
DU-145 prostate = test system: DU-145 prostate
SNB-75 CNS = test system: SNB-75 CNS
MDA-MB-435 = test system: MDA-MB-435
NCI-H460 lung = test system: NCI-H460 lung
NCI-H23 lung = test system: NCI-H23 lung
786-0 renal = test system: 786-0 renal
HCT-15 colon = test system: HCT-15 colon
COLO 205 colon = test system: COLO 205 colon
TK-10 renal = test system: TK-10 renal
OVCAR-3 ovarian = test system: OVCAR-3 ovarian
OVCAR-4 ovarian = test system: OVCAR-4 ovarian
KM12 colon = test system: KM12 colon
K-562 leukemia = test system: K-562 leukemia
M14 melanoma = test system: M14 melanoma
SF-268 CNS = test system: SF-268 CNS
RPMI-8226 leukemia = test system: RPMI-8226 leukemia
IGROV1 ovarian = test system: IGROV1 ovarian
SR leukemia = test system: SR leukemia
U251 CNS = test system: U251 CNS
HOP-62 NSCLC = test system: HOP-62 NSCLC
HCC-2998 colon = test system: HCC-2998 colon
CAKI-1 renal = test system: CAKI-1 renal
OVCAR-8 ovarian = test system: OVCAR-8 ovarian
MCF7 breast = test system: MCF7 breast
SK-MEL-28 melanoma = test system: SK-MEL-28 melanoma
RXF 393 renal = test system: RXF 393 renal
MALME-3M melanoma = test system: MALME-3M melanoma
HCT-116 colon = test system: HCT-116 colon
MDA-MB-231 breast = test system: MDA-MB-231 breast
NCI/ADR-RES ovarian = test system: NCI/ADR-RES ovarian
UACC-62 melanoma = test system: UACC-62 melanoma
UACC-257 melanoma = test system: UACC-257 melanoma
ACHN renal = test system: ACHN renal
HL-60(TB) leukemia = test system: HL-60(TB) leukemia
SW-620 colon = test system: SW-620 colon
CCRF-CEM leukemia = test system: CCRF-CEM leukemia
A549 NSCLC = test system: A549 NSCLC

O=C1/C(=C/c2ccc([N+](=O)[O-])o2)Oc2ccccc21
GI50 (PC-3 prostate): 2.25 µM | TGI (PC-3 prostate): 7.12 µM | GI50 (T-47D breast): 1.24 µM | TGI (T-47D breast): 4.34 µM | GI50 (UO-31 renal): 1.07 µM | TGI (UO-31 renal): 2.86 µM | GI50 (MOLT-4 leukemia): 1.35 µM | TGI (MOLT-4 leukemia): 3.7 µM | GI50 (HOP-92 NSCLC): 0.912 µM | TGI (HOP-92 NSCLC): 2.62 µM | GI50 (HS 578T breast): 2.88 µM | TGI (HS 578T breast): 21.4 µM | GI50 (SF-539 CNS): 1.87 µM | TGI (SF-539 CNS): 4.14 µM | GI50 (SNB-19 CNS): 5.06 µM | TGI (SNB-19 CNS): 18.6 µM | GI50 (LOX IMVI melanoma): 1.42 µM | TGI (LOX IMVI melanoma): 2.93 µM | GI50 (OVCAR-5 ovarian): 1.85 µM | TGI (OVCAR-5 ovarian): 3.5 µM | GI50 (SK-MEL-5 melanoma): 1.69 µM | TGI (SK-MEL-5 melanoma): 3.29 µM | GI50 (SK-MEL-2 melanoma): 1.91 µM | TGI (SK-MEL-2 melanoma): 3.73 µM | GI50 (SF-295 CNS): 3.43 µM | TGI (SF-295 CNS): 13.8 µM | GI50 (BT-549 breast): 1.76 µM | TGI (BT-549 breast): 3.74 µM | GI50 (SN12C renal): 2.17 µM | TGI (SN12C renal): 5.53 µM | GI50 (SK-OV-3 ovarian): 6.4 µM | TGI (SK-OV-3 ovarian): 18.2 µM | GI50 (NCI-H226 lung): 1.94 µM | TGI (NCI-H226 lung): 4.98 µM | GI50 (HT29 colon): 0.613 µM | TGI (HT29 colon): 2.84 µM | GI50 (A498 renal): 1.93 µM | TGI (A498 renal): 4.4 µM | GI50 (NCI-H522 lung): 0.384 µM | TGI (NCI-H522 lung): 1.45 µM | GI50 (DU-145 prostate): 1.91 µM | TGI (DU-145 prostate): 3.73 µM | GI50 (SNB-75 CNS): 1.8 µM | TGI (SNB-75 CNS): 5.77 µM | GI50 (MDA-MB-435): 1.79 µM | TGI (MDA-MB-435): 4.01 µM | GI50 (NCI-H460 lung): 1.91 µM | TGI (NCI-H460 lung): 4.09 µM | GI50 (NCI-H23 lung): 1.95 µM | TGI (NCI-H23 lung): 5.08 µM | GI50 (786-0 renal): 2.06 µM | TGI (786-0 renal): 4.12 µM | GI50 (HCT-15 colon): 0.341 µM | TGI (HCT-15 colon): 1.43 µM | GI50 (COLO 205 colon): 1.35 µM | TGI (COLO 205 colon): 2.91 µM | GI50 (TK-10 renal): 1.59 µM | TGI (TK-10 renal): 3.02 µM | GI50 (OVCAR-3 ovarian): 1.23 µM | TGI (OVCAR-3 ovarian): 2.62 µM | GI50 (OVCAR-4 ovarian): 1.61 µM | TGI (OVCAR-4 ovarian): 3.65 µM | GI50 (KM12 colon): 1.77 µM | TGI (KM12 colon): 3.48 µM | GI50 (K-562 leukemia): 0.371 µM | TGI (K-562 leukemia): 1.97 µM | GI50 (M14 melanoma): 1.69 µM | TGI (M14 melanoma): 3.88 µM | GI50 (SF-268 CNS): 2.19 µM | TGI (SF-268 CNS): 5.86 µM | GI50 (RPMI-8226 leukemia): 1.02 µM | TGI (RPMI-8226 leukemia): 3.58 µM | GI50 (IGROV1 ovarian): 1.37 µM | TGI (IGROV1 ovarian): 3.62 µM | GI50 (SR leukemia): 0.219 µM | TGI (SR leukemia): 1.13 µM | GI50 (U251 CNS): 1.96 µM | TGI (U251 CNS): 4.66 µM | GI50 (HOP-62 NSCLC): 2.22 µM | TGI (HOP-62 NSCLC): 6.42 µM | GI50 (HCC-2998 colon): 1.98 µM | TGI (HCC-2998 colon): 3.94 µM | GI50 (CAKI-1 renal): 0.758 µM | TGI (CAKI-1 renal): 2.17 µM | GI50 (OVCAR-8 ovarian): 1.35 µM | TGI (OVCAR-8 ovarian): 3.82 µM | GI50 (MCF7 breast): 0.827 µM | TGI (MCF7 breast): 3.11 µM | GI50 (SK-MEL-28 melanoma): 1.65 µM | TGI (SK-MEL-28 melanoma): 3.2 µM | GI50 (RXF 393 renal): 1.61 µM | TGI (RXF 393 renal): 3.24 µM | GI50 (MALME-3M melanoma): 1.86 µM | TGI (MALME-3M melanoma): 3.78 µM | GI50 (HCT-116 colon): 0.332 µM | TGI (HCT-116 colon): 1.36 µM | GI50 (MDA-MB-231 breast): 1.54 µM | TGI (MDA-MB-231 breast): 3.58 µM | GI50 (NCI/ADR-RES ovarian): 3.08 µM | TGI (NCI/ADR-RES ovarian): 11.7 µM | GI50 (UACC-62 melanoma): 1.47 µM | TGI (UACC-62 melanoma): 2.93 µM | GI50 (UACC-257 melanoma): 1.68 µM | TGI (UACC-257 melanoma): 3.5 µM | GI50 (ACHN renal): 0.895 µM | TGI (ACHN renal): 2.17 µM | GI50 (HL-60(TB) leukemia): 1.33 µM | TGI (HL-60(TB) leukemia): 3.89 µM | GI50 (SW-620 colon): 0.373 µM | TGI (SW-620 colon): 1.61 µM | GI50 (CCRF-CEM leukemia): 0.338 µM | TGI (CCRF-CEM leukemia): 1.38 µM | GI50 (A549 NSCLC): 3.23 µM | TGI (A549 NSCLC): 12.3 µM
